Reference: patent US7927821B2, “Methods of screening for compounds which bind G protein-coupled receptors” (Takeda Pharmaceutical Company Limited, priority 2004, dated 2011)

Target: TGR25-GFP fusion protein (UniProt P42212+Q86Y34, F64L/I167T/S65C)
Assay: Internalization of the TGR25-GFP fusion protein expressed on CHO cells (confocal microscope)
Assay type: cell-based, human
Conditions: 100 μM AM251, 45 minutes, 37° C.

Cc1c(C(=O)NN2CCCCC2)nn(-c2ccc(Cl)cc2Cl)c1-c1ccc(I)cc1 [AM251, 1-(2,4-dichlorophenyl)-5-(4-iodophenyl)-4-methyl-N-piperidin-1-yl-1H-pyrazole-3-carboxamide]
localization of the TGR25-GFP fusion protein (internalization): moved in part to the cytoplasm
